Data taken from patent US8975235B2, “Lysophosphatidic acid receptor antagonists” (InterMune, Inc., priority 2011, dated 2015).

The molecules below were run against Human LPA1 (Homo sapiens, UniProt Q92633) (assay: Beta-Arrestin based assay for human LPA1R antagonists (PathHunter)). Details: CHO cells stably expressing ProLink tagged human LPA1R; agonist LPA 0.5 micromolar.
Chain of Human LPA1 (Q92633 whole entry): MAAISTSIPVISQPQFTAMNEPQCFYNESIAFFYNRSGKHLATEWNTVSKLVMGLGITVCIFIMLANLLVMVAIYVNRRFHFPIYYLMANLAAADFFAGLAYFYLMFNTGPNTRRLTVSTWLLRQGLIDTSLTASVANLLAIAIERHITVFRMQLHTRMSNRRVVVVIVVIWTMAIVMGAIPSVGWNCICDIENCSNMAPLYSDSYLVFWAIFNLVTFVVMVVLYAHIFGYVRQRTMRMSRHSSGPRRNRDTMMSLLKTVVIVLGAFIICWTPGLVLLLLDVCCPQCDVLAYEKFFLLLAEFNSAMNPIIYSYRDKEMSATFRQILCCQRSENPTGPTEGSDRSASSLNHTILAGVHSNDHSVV
Assay type: cell-based
Design: host or cells: CHO
Experimental: Beta-Arrestin Based Assays for Human LPA1R Antagonists and Agonists
A CHO cell line stably expressing the ProLink™ tagged human LPA1R was obtained from DiscoverX Inc, Fremont, Calif. In this system, β-Arrestin was fused to an N-terminal deletion mutant of β-galactosidase (termed the enzyme acceptor or EA), the human LPA1R was fused to a smaller (42 amino acids) weakly complementing fragment termed ProLink™. […] Cell handling and assays were performed according to protocols specified in the PathHunter® assays kits (DiscoverX, Fremont, Calif.). Assays were performed in quadruplicate in white 384 well plates. End point luminescence data were plotted and fit to a 4 parameter logistic function to obtain IC50 values. For antagonist assays, an […] concentration of agonist (LPA) equal to 0.5 micromolar was used.
In the case of `Cc1noc(-c2ccc(-c3ccc(C(C(=O)O)c4ccccc4)cc3)cc2)c1NC(=O)O[C@H](C)c1ccccc1Cl` (single isomer, unassigned) [Compound 16], the EC50 is reported as < 50 nM.
With `Cc1noc(-c2ccc(-c3ccc4c(c3)CCC4C(=O)O)cc2)c1NC(=O)O[C@H](C)c1ccccc1Cl` (single isomer, unassigned) [Compound 26] the EC50 was < 50 nM.
In the case of `Cc1nsc(-c2ccc(-c3ccc(C4(C(=O)O)CC4)cc3)cc2)c1NC(=O)O[C@H](C)C1=C(Cl)CCC1` (single isomer, unassigned) [Compound 216], the EC50 is reported as < 50 nM.
With `Cc1nsc(-c2ccc(-c3ccc(C4(C(=O)O)CC4)cc3)cc2)c1NC(=O)O[C@@H](C)C1=C(Cl)CCC1` (single isomer, unassigned) [Compound 217] the EC50 was > 500 nM.
For `CCOC(=O)Cc1ccc(-c2ccc(-c3onc(C)c3NS(=O)(=O)Cc3ccccc3)cc2)cc1` [Compound 15], the EC50 was > 500 nM.
In the case of `Cc1noc(-c2ccc(-c3ccc(CC(=O)O)cc3)cc2)c1NS(=O)(=O)Cc1ccccc1` [Compound 17], the EC50 is reported as > 500 nM.
For `CCOC(=O)Cc1ccc(-c2ccc(-c3onc(C)c3NS(=O)(=O)c3ccccc3)cc2)cc1` [Compound 18], the EC50 was > 500 nM.
An EC50 of 50 to 500 nM was found for `Cc1noc(-c2ccc(-c3ccc4c(c3)CCCC4C(=O)O)cc2)c1NC(=O)O[C@H](C)c1ccccc1Cl` (stereo partly shown) [Compound 21] in this work.
In the case of `Cc1noc(-c2ccc(Nc3ccccc3C(=O)O)cc2)c1NC(=O)O[C@H](C)c1ccccc1Cl` [Compound 22], the EC50 is reported as > 500 nM.
An EC50 of 50 to 500 nM was found for `Cc1noc(-c2ccc(-c3ccc4c(c3)CCCC4C(=O)O)cc2)c1NC(=O)O[C@H](C)c1ccccc1Cl` (stereo partly shown) [Compound 23] in this work.
An EC50 of 50 to 500 nM was found for `Cc1noc(-c2ccc(-c3ccc4c(c3)CCCC4C(=O)O)cc2)c1NC(=O)O[C@H](C)c1ccccc1Cl` (stereo partly shown) [Compound 24] in this work.
`Cc1noc(-c2ccc(-c3ccc4c(c3)CCC4C(=O)O)cc2)c1NC(=O)O[C@H](C)c1ccccc1Cl` (stereo partly shown) [Compound 27] was tested, and the EC50 was < 50 nM.
An EC50 of 50 to 500 nM was found for `C[C@@H](OC(=O)Nc1c(-c2ccc(-c3ccc(CC(=O)O)cc3)cc2)oc2ccccc12)c1ccccc1Cl` [Compound 31] in this work.
With `Cc1noc(-c2ccc(-c3ccc(C4(C(=O)O)CN(Cc5ccccc5)C4)cc3)cc2)c1NC(=O)O[C@H](C)c1ccccc1Cl` [Compound 33] the EC50 was < 50 nM.
In the case of `Cc1noc(-c2ccc(-c3ccc(C4(C(=O)O)CNC4)cc3)cc2)c1NC(=O)O[C@H](C)c1ccccc1Cl` [Compound 34], the EC50 is reported as > 500 nM.
`COC(=O)N1CC(C(=O)O)(c2ccc(-c3ccc(-c4onc(C)c4NC(=O)O[C@H](C)c4ccccc4Cl)cc3)cc2)C1` [Compound 37] was tested, and the EC50 was < 50 nM.
With `Cc1noc(-c2ccc(-c3ccc(C4(C(=O)O)CN(S(C)(=O)=O)C4)cc3)cc2)c1NC(=O)O[C@H](C)c1ccccc1Cl` [Compound 38] the EC50 was < 50 nM.
An EC50 of 50 to 500 nM was found for `Cc1noc(-c2ccc(-c3ccc(C4(C(=O)O)CN(C)C4)cc3)cc2)c1NC(=O)O[C@H](C)c1ccccc1Cl` [Compound 39] in this work.
An EC50 of 50 to 500 nM was found for `CCNC(=O)N1CC(C(=O)O)(c2ccc(-c3ccc(-c4onc(C)c4NC(=O)O[C@H](C)c4ccccc4Cl)cc3)cc2)C1` [Compound 40] in this work.
`C[C@@H](OC(=O)Nc1c(-c2ccc(-c3ccc(C4(C(=O)O)CC4)cc3)cc2)oc2ccccc12)c1ccccc1Cl` [Compound 42] was tested, and the EC50 was < 50 nM.
For `Cc1cccc2c(NC(=O)O[C@H](C)c3ccccc3Cl)c(-c3ccc(-c4ccc(C5(C(=O)O)CC5)cc4)cc3)oc12` [Compound 51], the EC50 was > 500 nM.
For `Cc1ccc2c(NC(=O)O[C@H](C)c3ccccc3Cl)c(-c3ccc(-c4ccc(C5(C(=O)O)CC5)cc4)cc3)oc2c1` [Compound 52], the EC50 was > 500 nM.
In the case of `Cc1ccc2oc(-c3ccc(-c4ccc(C5(C(=O)O)CC5)cc4)cc3)c(NC(=O)O[C@H](C)c3ccccc3Cl)c2c1` [Compound 53], the EC50 is reported as > 500 nM.
An EC50 of 50 to 500 nM was found for `C[C@@H](OC(=O)Nc1cnnn1-c1ccc(-c2ccc(C3(C(=O)O)CC3)cc2)cc1)c1ccccc1` [Compound 66] in this work.
In the case of `Cc1nsc(-c2ccc(-c3ccc(C(C(=O)O)c4ccccc4)cc3)cc2)c1NC(=O)O[C@H](C)c1ccccc1Cl` (stereo partly shown) [Compound 69], the EC50 is reported as < 50 nM.
With `Cc1nsc(-c2ccc(-c3ccc(C4(C(=O)O)CC4)cc3)cc2)c1NC(=O)OCc1ccccn1` [Compound 72] the EC50 was > 500 nM.
An EC50 of 50 to 500 nM was found for `Cc1nsc(-c2ccc(-c3ccc(C4(C(=O)O)CC4)cc3)cc2)c1NC(=O)OCc1ccccc1F` [Compound 73] in this work.
An EC50 of 50 to 500 nM was found for `Cc1noc(-c2ccc(-c3ccc(C4(C(=O)O)CC4)cc3)cc2)c1NC(=O)OC1(c2ccccc2)CC1` [Compound 76] in this work.
In the case of `Cc1noc2cc(-c3ccc(CC(=O)O)cc3)cc(NC(=O)O[C@H](C)c3ccccc3Cl)c12` [Compound 77], the EC50 is reported as > 500 nM.
An EC50 of 50 to 500 nM was found for `Cc1nsc(-c2ccc(-c3ccc(C4(C(=O)O)CC4)cc3)cc2)c1NC(=O)O[C@H](C)c1ccccn1` [Compound 84] in this work.
An EC50 of 50 to 500 nM was found for `Cc1ccccc1COC(=O)Nc1c(C)nsc1-c1ccc(-c2ccc(C3(C(=O)O)CC3)cc2)cc1` [Compound 85] in this work.
For `Cc1nsc(-c2ccc3cc(C#CC4(C(=O)O)CC4)ccc3c2)c1NC(=O)O[C@H](C)c1ccccc1Cl` [Compound 87], the EC50 was < 50 nM.
An EC50 of 50 to 500 nM was found for `Cc1nsc(-c2ccc3cc(C#CC4(C(=O)O)CC4)ccc3c2)c1NC(=O)O[C@H](C)c1ccccc1` [Compound 88] in this work.
An EC50 of 50 to 500 nM was found for `Cc1nsc(-c2ccc3cc(C#CC4(C(=O)O)CC4)ccc3c2)c1NC(=O)OCc1ccccc1` [Compound 89] in this work.
An EC50 of 50 to 500 nM was found for `Cc1nsc(C#Cc2ccc3cc(CC(=O)O)ccc3c2)c1NC(=O)O[C@H](C)c1ccccc1` [Compound 90] in this work.
For `Cc1nsc(C#Cc2ccc3cc(CC(=O)O)ccc3c2)c1NC(=O)OCc1ccccc1` [Compound 91], the EC50 was > 500 nM.
For `Cc1nsc(C#Cc2ccc3cc(C4(C(=O)O)CC4)ccc3c2)c1NC(=O)O[C@H](C)c1ccccc1` [Compound 92], the EC50 was < 50 nM.
`Cc1nsc(C#Cc2ccc3cc(C4(C(=O)O)CC4)ccc3c2)c1NC(=O)O[C@H](C)c1ccccc1Cl` [Compound 93] was tested, and the EC50 was < 50 nM.
An EC50 of 50 to 500 nM was found for `Cc1nsc(C#Cc2ccc3cc(CC(=O)O)ccc3c2)c1NC(=O)O[C@H](C)c1ccccc1Cl` [Compound 94] in this work.
For `Cc1nsc(-c2ccc(-c3ccc(C4(C(=O)O)CC4)cc3)cc2)c1NC(=O)OC(C)C` [Compound 95], the EC50 was > 500 nM.
`Cc1nsc(-c2ccc(-c3ccc(C4(C(=O)O)CC4)cc3)cc2)c1NC(=O)OCc1cccc(F)c1` [Compound 96] was tested, and the EC50 was < 50 nM.
In the case of `Cc1nsc(-c2ccc(-c3ccc(C4(C(=O)O)CC4)cc3)cc2)c1NC(=O)OCc1cccc(Cl)c1` [Compound 97], the EC50 is reported as < 50 nM.
An EC50 of 50 to 500 nM was found for `Cc1nsc(-c2ccc(-c3ccc(C4(C(=O)O)CC4)cc3)cc2)c1NC(=O)OCc1ccc(F)cc1` [Compound 98] in this work.
For `Cc1nsc(-c2ccc(-c3ccc(C4(C(=O)O)CC4)cc3)cc2)c1NC(=O)OCc1ccc(Cl)cc1Cl` [Compound 99], the EC50 was > 500 nM.
An EC50 of 50 to 500 nM was found for `Cc1nsc(-c2ccc(-c3ccc(C4(C(=O)O)CC4)cc3)cc2)c1NC(=O)OCc1ccc(Cl)cc1` [Compound 100] in this work.
`Cc1nsc(-c2ccc(-c3ccc(C4(C(=O)O)CC4)cc3)cc2)c1NC(=O)OCc1cccc(Cl)c1Cl` [Compound 101] was tested, and the EC50 was > 500 nM.
An EC50 of 50 to 500 nM was found for `Cc1nsc(-c2ccc(-c3ccc(C4(C(=O)O)CC4)cc3)cc2)c1NC(=O)OCc1ccc(F)cc1Cl` [Compound 102] in this work.
An EC50 of 50 to 500 nM was found for `Cc1nsc(-c2ccc(-c3ccc(C4(C(=O)O)CC4)cc3)cc2)c1NC(=O)OCc1cccc(F)c1Cl` [Compound 103] in this work.
In the case of `Cc1nsc(-c2ccc(-c3ccc4c(ccn4CC(=O)O)c3)cc2)c1NC(=O)O[C@H](C)c1ccccc1Cl` [Compound 104], the EC50 is reported as > 500 nM.
An EC50 of 50 to 500 nM was found for `C[C@@H](OC(=O)Nc1scnc1-c1ccc(-c2ccc(C3(C(=O)O)CC3)cc2)cc1)c1ccccc1` [Compound 106] in this work.
An EC50 of 50 to 500 nM was found for `O=C(Nc1scnc1-c1ccc(-c2ccc(C3(C(=O)O)CC3)cc2)cc1)OCc1ccccc1` [Compound 108] in this work.
An EC50 of 50 to 500 nM was found for `C[C@@H](OC(=O)Nc1ncsc1-c1ccc(-c2ccc(C3(C(=O)O)CC3)cc2)cc1)c1ccccc1` [Compound 109] in this work.
An EC50 of 50 to 500 nM was found for `C[C@@H](OC(=O)Nc1ncsc1-c1ccc(-c2ccc(C3(C(=O)O)CC3)cc2)cc1)c1ccccc1Cl` [Compound 110] in this work.
In the case of `O=C(Nc1ncsc1-c1ccc(-c2ccc(C3(C(=O)O)CC3)cc2)cc1)OCc1ccccc1` [Compound 111], the EC50 is reported as > 500 nM.
`C[C@@H](OC(=O)Nc1c(Cl)nsc1-c1ccc(-c2ccc(C3(C(=O)O)CC3)cc2)cc1)c1ccccc1` [Compound 112] was tested, and the EC50 was < 50 nM.
With `C[C@@H](OC(=O)Nc1cnsc1-c1ccc(-c2ccc(C3(C(=O)O)CC3)cc2)cc1)c1ccccc1` [Compound 114] the EC50 was < 50 nM.
`Cc1cc(-c2ccc(C3(C(=O)O)CC3)cc2)ccc1-c1snc(C)c1NC(=O)O[C@H](C)c1ccccc1Cl` [Compound 115] was tested, and the EC50 was < 50 nM.
With `Cc1cc(-c2snc(C)c2NC(=O)O[C@H](C)c2ccccc2Cl)ccc1-c1ccc(C2(C(=O)O)CC2)cc1` [Compound 116] the EC50 was < 50 nM.
For `Cc1nsc(-c2ccc(-c3ccc(C4(C(=O)O)CC4)cc3)c(F)c2)c1NC(=O)O[C@H](C)c1ccccc1Cl` [Compound 117], the EC50 was < 50 nM.
An EC50 of 50 to 500 nM was found for `Cc1cc(-c2ccc(-c3snc(C)c3NC(=O)O[C@H](C)c3ccccc3Cl)cc2)ccc1CC(=O)O` [Compound 118] in this work.
In the case of `Cc1nsc(-c2ccc(-c3ccc(C4(C(=O)O)CC4)cc3)cc2F)c1NC(=O)O[C@H](C)c1ccccc1Cl` [Compound 119], the EC50 is reported as < 50 nM.
`Cc1nsc(-c2cc(Cl)c(-c3ccc(C4(C(=O)O)CC4)cc3)cc2F)c1NC(=O)O[C@H](C)c1ccccc1Cl` [Compound 120] was tested, and the EC50 was < 50 nM.
With `Cc1cc(-c2snc(C)c2NC(=O)O[C@H](C)c2ccccc2Cl)c(F)cc1-c1ccc(C2(C(=O)O)CC2)cc1` [Compound 121] the EC50 was < 50 nM.
With `Cc1cc(-c2snc(C)c2NC(=O)O[C@H](C)c2ccccc2Cl)c(Cl)cc1-c1ccc(C2(C(=O)O)CC2)cc1` [Compound 122] the EC50 was < 50 nM.
